Measured values taken from patent publication US7855290B2, “Pyridine derivatives and pyrimidine derivatives (3)” (Eisai R&D Management Co., Ltd., priority 2005, dated 2010).

Experiments:
[1] = molecular target: T1, His6-HGFR (HGFR cytoplasmic domain) (Homo sapiens, UniProt P08581); assay: Inhibitory activity against HGFR tyrosine kinase activity (HTRF); format: biochemical; settings: biotin-poly(GT), ATP, 30° C. 10 min
T1 construct: made in house; host or cells: Sf9 insect cells (Spodoptera frugiperda), baculovirus, pFastBac-HT vector
In short: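 Sf9-expressed, Ni-NTA-purified N-terminal His6-tagged HGFR cytoplasmic domain (from Lys974), 30 ng, phosphorylates 250 ng biotin-poly(GT) in Hepes pH 7.4 with MgCl2, MnCl2 and Na3VO4. Reaction started with 4 μM ATP stock, run 10 min at 30° C, stopped with EDTA. Phosphotyrosine is detected by HTRF.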

[2] = system: Human gastric cancer cells (MKN-45); assay: Inhibitory activity against the proliferation of human gastric cancer cells (MKN-45); format: cell-based; settings: 72 h, MKN-45, 1% FBS RPMI1640, 3 days, Cell Counting Kit-8
In short: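 MKN-45 cells seeded overnight in RPMI1640 with 1% FBS, then exposed to compound for 3 days at 37° C, 5% CO2. Viability read with CCK-8 after about 1.5 hrs, absorbance at 450 nm (reference 660 nm).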

T1 sequence (P08581 956-1390 limits assumed): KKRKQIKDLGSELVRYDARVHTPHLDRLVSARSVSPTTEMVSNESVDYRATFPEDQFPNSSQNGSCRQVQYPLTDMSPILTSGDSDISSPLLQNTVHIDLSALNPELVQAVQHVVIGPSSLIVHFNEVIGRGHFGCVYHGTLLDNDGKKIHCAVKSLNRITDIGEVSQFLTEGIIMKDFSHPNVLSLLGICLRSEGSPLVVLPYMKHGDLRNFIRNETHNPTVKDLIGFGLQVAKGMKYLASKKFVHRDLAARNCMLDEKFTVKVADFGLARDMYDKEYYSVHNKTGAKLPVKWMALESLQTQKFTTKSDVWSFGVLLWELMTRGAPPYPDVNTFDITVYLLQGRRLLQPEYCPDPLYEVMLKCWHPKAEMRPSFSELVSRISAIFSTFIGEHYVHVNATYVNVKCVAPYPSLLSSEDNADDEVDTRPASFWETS

IC50 [1] | IC50 [2] | SMILES
100 nM | 38 nM | CN(C)CCN1CCC(N(C)C(=O)Nc2cc(Oc3ccc(NC(=O)C4(C(=O)Nc5ccc(F)cc5)CC4)cc3)ccn2)CC1 [Example 39, N-(4-{[2-({[{1-[2-(Dimethylamino)ethyl]piperidin-4-yl}(methyl)amino]carbonyl}amino)pyridin-4-yl]oxy}phenyl)-N′-(4-fluorophenyl)cyclopropane-1,1-dicarboxamide]
72 nM | 40 nM | CN(C)C1CCN(C(=O)Nc2cc(Oc3cc(F)c(NC(=O)C4(C(=O)Nc5ccc(F)cc5)CC4)cc3F)ncn2)CC1 [Example 102, N-(4-{[4-({[4-(Dimethylamino)piperidin-1-yl]carbonyl}amino)pyrimidin-6-yl]oxy}-2,5-difluorophenyl)-N′-(4-fluorophenyl)cyclopropane-1,1-dicarboxamide]
63 nM | 17 nM | CN1CCC(N(C)C(=O)Nc2cc(Oc3ccc(NC(=O)C4(C(=O)Nc5ccccc5)CC4)c(F)c3)ccn2)CC1 [Example 48, N-(2-Fluoro-4-{[2-({[methyl(1-methylpiperidin-4-yl)amino]carbonyl}amino)pyridin-4-yl]oxy}phenyl)-N′-phenylcyclopropane-1,1-dicarboxamide]
45 nM | 19 nM | CN(C)C1CN(C(=O)Nc2cc(Oc3ccc(NC(=O)C4(C(=O)Nc5ccc(F)cc5)CC4)c(F)c3)ccn2)C1 [Example 76, N-(4-{[2-({[3-(Dimethylamino)azetidin-1-yl]carbonyl}amino)pyridin-4-yl]oxy}-2-fluorophenyl)-N′-(4-fluorophenyl)cyclopropane-1,1-dicarboxamide]
10 nM | 19 nM | O=C(Nc1cc(Oc2ccc(NC(=O)C3(C(=O)Nc4ccc(F)cc4)CC3)c(F)c2)ccn1)N1CC(CO)C1 [Example 75]
180 nM | 150 nM | CN1CCC(N(C)C(=O)Nc2cc(Oc3ccc(NC(=O)C4(C(=O)Nc5ccccc5F)CC4)c(F)c3)ccn2)CC1 [Example 57, N-(2-Fluoro-4-{[2-({[methyl(1-methylpiperidin-4-yl)amino]carbonyl}amino)pyridin-4-yl]oxy}phenyl)-N′-(2-fluorophenyl)cyclopropane-1,1-dicarboxamide]
53 nM | 33 nM | CN(C)C1CCN(C(=O)Nc2cc(Oc3ccc(NC(=O)C4(C(=O)Nc5ccc(F)cc5)CC4)c(F)c3)ccn2)CC1 [Example 18, N-(4-{[2-({[4-(Dimethylamino)piperidin-1-yl]carbonyl}amino)pyridin-4-yl]oxy}-2-fluorophenyl)-N′-(4-fluorophenyl)cyclopropane-1,1-dicarboxamide]
105 nM | 50 nM | O=C(Nc1cc(Oc2ccc(NC(=O)C3(C(=O)Nc4ccc(F)cc4)CC3)c(F)c2)ccn1)N1CC(N2CCC2)C1 [Example 73, N-[4-({2-[(1,3′-Biazetidin-1′-ylcarbonyl)amino]pyridin-4-yl}oxy)-2-fluorophenyl]-N′-(4-fluorophenyl)cyclopropane-1,1-dicarboxamide]
180 nM | 280 nM | CCN(CC)CCCNC(=O)Nc1cc(Oc2ccc(NC(=O)C3(C(=O)Nc4ccc(F)cc4)CC3)c(Cl)c2)ccn1 [Example 43, N-[2-Chloro-4-({2-[({[3-(diethylamino)propyl]amino}carbonyl)amino]pyridin-4-yl}oxy)phenyl]-N′-(4-fluorophenyl)cyclopropane-1,1-dicarboxamide]
48 nM | 14 nM | CN1CC(N2CCN(C(=O)Nc3cc(Oc4ccc(NC(=O)C5(C(=O)Nc6ccc(F)cc6)CC5)c(F)c4)ccn3)CC2)C1 [Example 17]
57 nM | 60 nM | CN(C)[C@@H]1CCN(C(=O)Nc2cc(Oc3ccc(NC(=O)C4(C(=O)Nc5ccc(F)cc5)CC4)cc3)ccn2)C1 [Example 42, N-(4-{[2-({[(3R)-3-(Dimethylamino)pyrrolidin-1-yl]carbonyl}amino)pyridin-4-yl]oxy}phenyl)-N′-(4-fluorophenyl)cyclopropane-1,1-dicarboxamide]
26 nM | 55 nM | CN1CCC(N(C)C(=O)Nc2cc(Oc3ccc(NC(=O)C4(C(=O)Nc5ccc(F)cc5)CC4)cc3F)ncn2)CC1 [Example 33, N-(3-Fluoro-4-{[6-({[methyl(1-methylpiperidin-4-yl)amino]carbonyl}amino)pyrimidin-4-yl]oxy}phenyl)-N′-(4-fluorophenyl)cyclopropane-1,1-dicarboxamide]
15 nM | 15 nM | O=C(Nc1cc(Oc2ccc(NC(=O)C3(C(=O)Nc4ccc(F)cc4)CC3)c(F)c2)ccn1)N1CCC1 [Example 61, N-[4-({2-[(Azetidin-1-ylcarbonyl)amino]pyridin-4-yl]oxy}-2-fluorophenyl]-N′-(4-fluorophenyl)cyclopropane-1,1-dicarboxamide]
85 nM | 25 nM | CN(C)[C@H]1CCN(C(=O)Nc2cc(Oc3ccc(NC(=O)C4(C(=O)Nc5ccccc5)CC4)c(F)c3)ccn2)C1 [Example 58, N-(4-{[2-({[(3S)-3-(Dimethylamino)pyrrolidin-1-yl]carbonyl}amino)pyridin-4-yl]oxy}-2-fluorophenyl)-N′-phenylcyclopropane-1,1-dicarboxamide]
121 nM | 61 nM | O=C(Nc1cc(Oc2ccc(NC(=O)C3(C(=O)Nc4ccc(F)cc4)CC3)c(F)c2)ccn1)N1CCC(N2CCNCC2)CC1 [Example 71, N-(4-Fluorophenyl)-N′-{2-fluoro-4-[(2-{[(4-piperazin-1-ylpiperidin-1-yl)carbonyl]amino}pyridin-4-yl)oxy]phenyl}cyclopropane-1,1-dicarboxamide]
59 nM | 15 nM | CN1CCN(C2CCN(C(=O)Nc3cc(Oc4ccc(NC(=O)C5(C(=O)Nc6ccc(F)cc6)CC5)cc4F)ccn3)CC2)CC1 [Example 20, N-(3-Fluoro-4-{[2-({[-4-(4-methylpiperazin-1-yl)piperidin-1-yl]-carbonyl}amino)pyridin-4-yl]oxy}phenyl)-N′-(4-fluorophenyl)cyclopropane-1,1-dicarboxamide]
20 nM | 25 nM | O=C(Nc1cc(Oc2ccc(NC(=O)C3(C(=O)Nc4ccc(F)cc4)CC3)c(F)c2)ccn1)N1CCCC1 [Example 62, N-(4-Fluorophenyl)-N′-[2-fluoro-4-({2-[(pyrrolidin-1-ylcarbonyl)amino]pyridin-4-yl}oxy)phenyl]cyclopropane-1,1-dicarboxamide]
46 nM | 22 nM | CN(C)[C@@H]1CCN(C(=O)Nc2cc(Oc3ccc(NC(=O)C4(C(=O)Nc5ccc(F)cc5)CC4)cc3F)ccn2)C1 [Example 36, N-(4-{[2-({[(3R)-3-(Dimethylamino)pyrrolidin-1-yl]carbonyl}amino)pyridin-4-yl]oxy}-3-fluorophenyl)-N′-(4-fluorophenyl)cyclopropane-1,1-dicarboxamide]
59 nM | 48 nM | O=C(Nc1cc(Oc2ccc(NC(=O)C3(C(=O)Nc4ccc(F)cc4)CC3)cc2)ccn1)N1CCC(CN2CCC2)CC1 [Example 27, N-(4-{[2-({f [4-(Azetidin-1-ylmethyl)piperidin-1-yl]carbonyl}amino)pyridin-4-yl]oxy}phenyl)-N′-(4-fluorophenyl)cyclopropane-1,1-dicarboxamide]
83 nM | 27 nM | CN(C)[C@@H]1CCN(C(=O)Nc2cc(Oc3ccc(NC(=O)C4(C(=O)Nc5ccc(F)cc5)CC4)c(F)c3)ccn2)C1 [Example 47, N-(4-{[2-({[(3R)-3-(Dimethylamino)pyrrolidin-1-yl]carbonyl}amino)pyridin-4-yl]oxy}-2-fluorophenyl)-N′-(4-fluorophenyl)cyclopropane-1,1-dicarboxamide]
45 nM | 36 nM | CN(C)C1CCN(C(=O)Nc2cc(Oc3ccc(NC(=O)C4(C(=O)Nc5ccc(F)cc5)CC4)cc3F)ccn2)CC1 [Example 23, N-(4-{[2-({[4-(Dimethylamino)piperidin-1-yl]carbonyl}amino)pyridin-4-yl]oxy}-3-fluorophenyl)-N′-(4-fluorophenyl)cyclopropane-1,1-dicarboxamide]
72 nM | 54 nM | O=C(Nc1cc(Oc2ccc(NC(=O)C3(C(=O)Nc4ccc(F)cc4)CC3)cc2)ccn1)N1CCN(CCN2CCC2)CC1 [Example 28, N-(4-{[2-({[4-(2-Azetidin-1-ylethyl)piperazin-1-yl]carbonyl}amino)pyridin-4-yl]oxy}phenyl)-N′-(4-fluorophenyl)cyclopropane-1,1-dicarboxamide]
16 nM | 46 nM | O=C(Nc1cc(Oc2ccc(NC(=O)C3(C(=O)Nc4ccc(F)cc4)CC3)c(F)c2F)ccn1)N1CC(O)C1 [Example 106, N-[2,3-Difluoro-4-[(2-{[(3-hydroxyazetidin-1-yl)carbonyl]amino}pyridin-4-yl)oxy]phenyl}-N′-(4-fluorophenyl)cyclopropane-1,1-dicarboxamide]
61 nM | 12 nM | CN1CCC(N2CCN(C(=O)Nc3cc(Oc4ccc(NC(=O)C5(C(=O)Nc6ccc(F)cc6)CC5)cc4F)ccn3)CC2)CC1 [Example 19, N-(3-Fluoro-4-{[2-({[4-(1-methylpiperidin-4-yl)piperazin-1-yl]carbonyl}amino)pyridin-4-yl]oxy}phenyl)-N′-(4-fluorophenyl)cyclopropane-1,1-dicarboxamide]
82 nM | 15 nM | CCN1CCC(N(C)C(=O)Nc2cc(Oc3ccc(NC(=O)C4(C(=O)Nc5ccccc5)CC4)c(F)c3)ccn2)CC1 [Example 60, N-(4-{[2-({[(1-Ethylpiperidin-4-yl)(methyl)amino]carbonyl}amino)pyridin-4-yl]oxy}-2-fluorophenyl)-N′-phenylcyclopropane-1′-dicarboxamide]
